Experimental data published in patent US10821115B2, “Compounds that inhibit Mcl-1 protein” (priority 2017, dated 2020).
Like-named read-outs stand apart in the source and are kept apart here.

What was measured:
[1] = target: recombinant human Mcl-1 (residues 171-327) / Bim interaction (Homo sapiens (Human), UniProt Q07820); test: biochemical; format: binding; conditions: read-out: Mcl-1 HTRF IC50
[2] = system: human multiple myeloma cell line, OPM-2; test: Cell viability assay (OPM-2 10 FBS), CellTiter-Glo; format: cell-based
Procedure, shortened: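 Cells were seeded at 3000 cells/well in RPMI 1640 with 10% FBS and exposed to serially diluted compounds for 16 h at 37 °C, 5% CO2.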

[3] = TR-FRET, Mcl-1(171-327) / biotin-Bim (51-76)
[4] = read-out: OPM-2 10% FBS IC50 IP, OPM-2 cells, 10% FBS, 16 h, CellTiter-Glo
[5] = 0.1 nM Mcl-1(171-327), 0.05 nM biotin-Bim (51-76)
[6] = Homo sapiens, OPM-2, 16 h, read-out: OPM-2 10% FBS IC50 IP, OPM-2 cells, 10% FBS, 16 h incubation
[7] = Homo sapiens, OPM-2, 16 h, read-out: OPM-2 10% FBS IC50 IP, OPM-2 cells, 10% FBS, 16 h, CellTiter-Glo

Sequence of recombinant human Mcl-1 (residues 171-327) / Bim interaction (Q07820 171-327): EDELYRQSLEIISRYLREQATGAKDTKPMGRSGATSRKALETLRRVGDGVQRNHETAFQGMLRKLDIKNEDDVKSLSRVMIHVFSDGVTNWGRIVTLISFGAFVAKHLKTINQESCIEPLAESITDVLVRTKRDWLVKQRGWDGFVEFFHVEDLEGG

Compound | IC50 [1, 3] | IC50 [1, 5] | IC50 [2, 6] | IC50 [2, 7] | other results
C[C@@H]1[C@@H](C)CCC[C@@]2(C[C@H]2C(=O)N2CCN3CCOC[C@H]3C2)[C@@H]2CC[C@H]2CN2C[C@@]3(CCCc4cc(Cl)ccc43)COc3ccc(cc32)C(=O)NS1(=O)=O [Example 100303, (1R,2R,3′R,6′R,11′S,12′R,22′S)-6″-chloro-2-((9aR)-hexahydropyrazino[2,1-c][1,4]oxazin-8(1H)-ylcarbonyl)-11′,12′-dimethyl-3″,4″-dihydro-2″H,15′H-dispiro[cyclopropane-1,7′-[20]oxa[13]thia[1,14]diazatetracyclo [14.7.2.0~3,6~.0~19,24~]pentacosa[16,18,24]triene-22′,1″-naphthalen]-15′-one 13′,13′-dioxide] | 3.64 nM |  |  |  | IC50 [2, 4]: 7330 nM
COC[C@@H]1[C@@H](C)C/C=C/[C@](CN2CCN3CCCC[C@@H]3C2)(OC)[C@@H]2CC[C@H]2CN2C[C@@]3(CCCc4cc(Cl)ccc43)COc3ccc(cc32)C(=O)NS1(=O)=O [Example 169] |  | 0.14 nM | 74 nM |  | 
COCC[C@@H]1[C@@H](C)C/C=C/[C@@](CN2CCN(C3COC3)CC2)(OC)[C@@H]2CC[C@H]2CN2C[C@@]3(CCCc4cc(Cl)ccc43)COc3ccc(cc32)C(=O)NS1(=O)=O [Example 187, (1S,3′R,6′R,7′R,8′E,11′S,12′R)-6-chloro-7′-methoxy-12′-(2-methoxyethyl)-11′-methyl-7′-((4-(3-oxetanyl)-1-piperazinyl)methyl)-3,4-dihydro-2H,15′H-spiro[naphthalene-1,22′-[20]oxa[13]thia[1,14]diazatetracyclo [14.7.2.0~3,6~.0~19,24~]pentacosa[8,16,18,24]tetraen]-15′-one 13′,13′-dioxide] |  | 0.066 nM | 43 nM |  | 
C[C@@H]1[C@@H](C)CCC[C@]2(OCCS2)[C@@H]2CC[C@H]2CN2C[C@@]3(CCCc4cc(Cl)ccc43)COc3ccc(cc32)C(=O)NS1(=O)=O (single isomer, unassigned) [Example 100116] | 3.78 nM |  |  | 5940 nM | 
C[C@@H]1[C@@H](C)CCC[C@@](O)(Cc2nccn2C)[C@@H]2CC[C@H]2CN2C[C@@]3(CCCc4cc(Cl)ccc43)COc3ccc(cc32)C(=O)NS1(=O)=O [Example 100162, (1S,3′R,6′R,7′R,11′S,12′R)-6-chloro-7′-hydroxy-11′,12′-dimethyl-7′-((1-methyl-1H-imidazol-2-yl)methyl)-3,4-dihydro-2H,15′H-spiro[naphthalene-1,22′-[20]oxa[13]thia[1,14]diazatetracyclo [14.7.2.0~3,6~.0~19,24~]pentacosa[16,18,24]trien]-15′-one 13′,13′-dioxide] | 3.47 nM |  |  |  | IC50 [2, 4]: 2870 nM
CO[C@@]1(CCO)/C=C/C[C@H](C)[C@@H](C)S(=O)(=O)N(C)C(=O)c2ccc3c(c2)N(C[C@@H]2CC[C@H]21)C[C@@]1(CCCc2cc(Cl)ccc21)CO3 [Example 100219, (1S,3′R,6′R,7′S,8′E,11′S,12′R)-6-chloro-7′-(2-hydroxyethyl)-7′-methoxy-11′,12′,14′-trimethyl-3,4-dihydro-2H,15′H-spiro[naphthalene-1,22′-[20]oxa[13]thia[1,14]diazatetracyclo [14.7.2.0~3,6~.0~19,24~]pentacosa[8,16,18,24]tetraen]-15′-one 13′,13′-dioxide] | 0.401 nM |  |  | 974 nM | 
C[C@@H]1[C@@H](C)CCC[C@]2(COC(=O)O2)[C@@H]2CC[C@H]2CN2C[C@@]3(CCCc4cc(Cl)ccc43)COc3ccc(cc32)C(=O)NS1(=O)=O (single isomer, unassigned) [Example 100055] | 1.27 nM |  |  | 4630 nM | 
CCO[C@@]1(CN2CCC(OC)CC2)/C=C/C[C@H](C)[C@@H](C)S(=O)(=O)NC(=O)c2ccc3c(c2)N(C[C@@H]2CC[C@H]21)C[C@@]1(CCCc2cc(Cl)ccc21)CO3 [Example 113, (1S,3′R,6′R,7′S,8′E,11′S,12′R)-6-chloro-7′-ethoxy-7′-((4-methoxy-1-piperidinyl)methyl)-11′,12′-dimethyl-3,4-dihydro-2H,15′H-spiro[naphthalene-1,22′-[20]oxa[13]thia[1,14]diazatetracyclo [14.7.2.0~3,6~.0~19,24~]pentacosa[8,16,18,24]tetraen]-15′-one 13′,13′-dioxide] |  | 1.19 nM | 1330 nM |  | 
CO[C@]1(CN2C[C@@H](C)N(C(C)C)[C@@H](C)C2)/C=C/C[C@H](C)[C@@H](C)S(=O)(=O)NC(=O)c2ccc3c(c2)N(C[C@@H]2CC[C@H]21)C[C@@]1(CCCc2cc(Cl)ccc21)CO3 [Example 328, (1S,3′R,6′R,7′R,8′E,11′S,12′R)-6-chloro-7′-(((3R,5S)-3,5-dimethyl-4-(1-methylethyl)-1-piperazinyl)methyl)-7′-methoxy-11′,12′-dimethyl-3,4-dihydro-2H,15′H-spiro[naphthalene-1,22′-[20]oxa[13]thia[1,14]diazatetracyclo [14.7.2.0~3,6~.0~19,24~]pentacosa[8,16,18,24]tetraen]-15′-one 13′,13′-dioxide] |  | 0.087 nM | 48 nM |  | 
CO[C@@]1(C#CCCN2CCOC[C@@H]2C)/C=C/C[C@H](C)[C@@H](C)S(=O)(=O)NC(=O)c2ccc3c(c2)N(C[C@@H]2CC[C@H]21)C[C@@]1(CCCc2cc(Cl)ccc21)CO3 [Example 100506, (1S,3′R,6′R,7′S,8′E,11′S,12′R)-6-chloro-7′-methoxy-11′,12′-dimethyl-7′-(4-((3S)-3-methyl-4-morpholinyl)-1-butyn-1-yl)-3,4-dihydro-2H,15′H-spiro[naphthalene-1,22′-[20]oxa[13]thia[1,14]diazatetracyclo [14.7.2.0~3,6~.0~19,24~]pentacosa[8,16,18,24]tetraen]-15′-one 13′,13′-dioxide] | 0.497 nM |  |  | 1270 nM | 
CO[C@]1(CN2CC[C@H]3CCCC[C@@H]3C2)/C=C/C[C@H](C)[C@@H](C)S(=O)(=O)NC(=O)c2ccc3c(c2)N(C[C@@H]2CC[C@H]21)C[C@@]1(CCCc2cc(Cl)ccc21)CO3 (single isomer, unassigned) [Example 89] |  | 3.75 nM |  |  | IC50 ([2]; read-out: OPM-2 10% FBS IC50 IP, OPM-2 cells, 10% FBS, 16 h incubation): 8210 nM
CO[C@@]1(CCO)/C=C/C[C@H](C)[C@@H](C)S(=O)(=O)NC(=O)c2ccc3c(c2)N(C[C@@H]2CC[C@H]21)C[C@@]1(CCCc2cc(Cl)ccc21)CO3 [Example 100218, (1S,3′R,6′R,7′S,8′E,11′S,12′R)-6-chloro-7′-(2-hydroxyethyl)-7′-methoxy-11′,12′-dimethyl-3,4-dihydro-2H,15′H-spiro[naphthalene-1,22′-[20]oxa[13]thia[1,14]diazatetracyclo [14.7.2.0~3,6~.0~19,24~]pentacosa[8,16,18,24]tetraen]-15′-one 13′,13′-dioxide] | 0.621 nM |  |  | 675 nM | 
CO[C@@]1(CC(=O)NCCCl)/C=C/C[C@H](C)[C@@H](C)S(=O)(=O)NC(=O)c2ccc3c(c2)N(C[C@@H]2CC[C@H]21)C[C@@]1(CCCc2cc(Cl)ccc21)CO3 [Example 100509, N-(2-chloroethyl)-2-((1S,3′R,6′R,7′S,8′E,11′S,12′R)-6-chloro-7′-methoxy-11′,12′-dimethyl-13′,13′-dioxido-15′-oxo-3,4-dihydro-2H-spiro[naphthalene-1,22′-[20]oxa[13]thia[1,14]diazatetracyclo [14.7.2.0~3,6~.0~19,24~]pentacosa[8,16,18,24]tetraen]-7′-yl)acetamide] | 0.057 nM |  |  | 361 nM | 
CO[C@@]1(CN2CCOCC2)/C=C/C[C@H](C)[C@@H](C)S(=O)(=O)NC(=O)c2ccc3c(c2)N(C[C@@H]2CC[C@H]21)C[C@@]1(CCCc2cc(Cl)ccc21)CO3 [Example 52, (1S,3′R,6′R,7′S,8′E,11′S,12′R)-6-chloro-7′-methoxy-11′,12′-dimethyl-7′-(4-morpholinylmethyl)-3,4-dihydro-2H,15′H-spiro[naphthalene-1,22′-[20]oxa[13]thia[1,14]diazatetracyclo [14.7.2.0~3,6~.0~19,24~]pentacosa[8,16,18,24]tetraen]-15′-one 13′,13′-dioxide] |  | 0.522 nM | 330 nM |  | 
C[C@@H]1[C@@H](C)CCC[C@@](O)([C@@H]2CCN(C)C2=O)[C@@H]2CC[C@H]2CN2C[C@@]3(CCCc4cc(Cl)ccc43)COc3ccc(cc32)C(=O)NS1(=O)=O [Example 100204, (1S,3′R,6′R,7′S,11′S,12′R)-6-chloro-7′-hydroxy-11′,12′-dimethyl-7′-((3S)-1-methyl-2-oxo-3-pyrrolidinyl)-3,4-dihydro-2H,15′H-spiro[naphthalene-1,22′-[20]oxa[13]thia[1,14]diazatetracyclo [14.7.2.0~3,6~.0~19,24~]pentacosa[16,18,24]trien]-15′-one 13′,13′-dioxide] | 1.66 nM |  |  |  | IC50 [2, 4]: 5270 nM
CCO[C@]1(CN2CCN3CCOC[C@@H]3C2)CCC[C@H](C)[C@@H](CCOC)S(=O)(=O)NC(=O)c2ccc3c(c2)N(C[C@@H]2CC[C@H]21)C[C@@]1(CCCc2cc(Cl)ccc21)CO3 [Example 518, (1S,3′R,6′R,7′R,11′S,12′R)-6-chloro-7′-ethoxy-7′-((9aS)-hexahydropyrazino[2,1-c][1,4]oxazin-8(1H)-ylmethyl)-12′-(2-methoxyethyl)-11′-methyl-3,4-dihydro-2H,15′H-spiro[naphthalene-1,22′-[20]oxa[13]thia[1,14]diazatetracyclo[14.7.2.0˜3,6˜.0˜19,24˜]pentacosa[16,18,24]trien]-15′-one 13′,13′-dioxide] |  | 0.164 nM | 224 nM |  | 
